Source: paper PMC7696940, “Effects of Rationally Designed Physico-Chemical Variants of the Peptide PuroA on Biocidal Activity towards Bacterial and Mammalian Cells” (International Journal of Molecular Sciences, 2020)
In brackets after ≈: the same amount, converted by molar mass. Where no end group is shown, it is not given here.

Legend:
NIH-3T3 cells = experiment: Cytotoxicity, MTT assay; assay type: cell-based, mouse; settings: 24 h; for IC50 NIH-3T3: peptide up to 250 µg/mL, concentration causing 50% cell growth inhibition, mean of triplicate assays; for Cytotoxicity to NIH-3T3 mouse fibroblasts (in words): up to 250 µg/mL
Method: (§1) Cytotoxicity to human cervical carcinoma HeLa cells and mouse fibroblastic NIH-3T3 cells was determined using the MTT assay as per Scudiero et al. with minor modifications. The cells were maintained in Dulbecco’s Modified Eagle Medium (DMEM) with 10% foetal bovine serum (FBS) and 1% penicillin G in a humidified incubator (Heraeus Hera Cell incubator) at 37 °C with 5% CO2. They were seeded in 96-well microtiter plates at 1 × 10^4 cells/well and allowed to adhere for 24 h in the incubator. The medium was removed, and adherent cells were washed with PBS. Fresh media containing serially diluted peptides in PBS (final concentrations 4 to 250 µg/mL) were added and the cells incubated for 24 h. Cells without peptides were used as negative controls. Following incubations, the medium was removed, and adherent cells were washed with PBS. 150 µL of MTT (diluted to 0.33 mg/mL in DMEM) and the plates incubated for 3 h. The precipitated formazan was dissolved in 100 µL of DMSO and its absorbance measured at 570 nm. Cell viability was determined as: (OD570 nm peptide treated cells/(OD570 nm untreated cells) × 100. Positive cytotoxicity was defined as peptide concentration that causes 50% growth inhibition in a cell line (IC50). All tests were carried out in triplicate.

HeLa cells = assay type: cell-based, human; settings: MTT, 24 h, peptide up to 250 µg/mL; concentration causing 50% cell growth inhibition; mean of triplicate assays
Method: as §1

E. coli and S. aureus = experiment: Salt tolerance (MICs under 0-150 mM NaCl, summary); assay type: cell-based, Escherichia coli; Staphylococcus aureus; parameters: key: Up to 50 mM: no effects on antibacterial activity up to 50 mM NaCl but increase in the MICs for E. coli and S. aureus at 100 mM NaCl; Intolerant: not resistant to salt effects even at 50 mM NaCl; Up to 150 mM: no effects on antibacterial activity up to 150 mM NaCl; settings: MICs for E. coli and S. aureus in MHB with 0, 50, 100 or 150 mM NaCl
Method: (§2) The activity of peptides was determined against the Gram-positive Staphylococcus aureus (ATCC 25923), and the Gram-negative Escherichia coli (ATCC 25922) and Pseudomonas aeruginosa (ATCC 9027) bacteria. Selected peptides were also tested against two clinical isolates of methicillin-resistant Staphylococcus aureus (MRSA), M173525 and M180920, kindly provided by Dr P. B. Ward (Microbiology Department, Austin and Repatriation Medical Centre, Heidelberg West, Victoria, Australia). The Minimum inhibitory concentration (MIC) of peptides was determined by the microtitre broth dilution method, as described in Phillips et al.. Briefly, bacteria were grown in Mueller-Hinton Broth (MHB) at 37 °C overnight with shaking (200 rpm). The cultures were adjusted to 0.5 McFarland turbidity standard (approximately 1 × 10^8 colony forming units (CFU)/mL), then diluted 1:100 in MHB (1 × 10^6 CFU/mL). A total of 75 μL of these suspensions were mixed with 25 μL of peptide solutions (final concentrations 250 to 0.5 μg/mL) and the microtitre plates incubated overnight at 37 °C. Positive growth controls (inoculum and MHB, with no peptide) and sterility controls (0.01% glacial acetic) were also included. Post-incubations, the absorbance of cultures at 595 nm was measured using a microplate reader (POLARstar Omega, Germany). […] To evaluate salt sensitivity of peptides up to physiological levels (150 mM NaCl), overnight cultures of S. aureus and E. coli adjusted to 0.5 McFarland turbidity standard were diluted 1:100 in MHB containing 0, 50, 100 or 150 mM NaCl, and the MICs of peptides determined as above. All tests were conducted in triplicate. The results are shown as the mode of values obtained.

E. coli ATCC25922 = assay type: cell-based, Escherichia coli; settings: MHB; for MIC E. coli, No NaCl: 0 mM NaCl; for MIC E. coli, No NaCl / MIC E. coli, With 50mM NaCl / MIC E. coli, With 100mM NaCl / MIC E. coli, With 150mM NaCl: triplicate, mode; for MIC E. coli ATCC25922: 37 °C overnight, A595, mode of three independent experiments
Method: as §2

P. aeruginosa ATCC9027 = assay type: cell-based, Pseudomonas aeruginosa; settings: MHB, 37 °C overnight, A595; mode of three independent experiments
Method: as §2

C. albicans FRR 5580 = assay type: cell-based, Candida albicans; settings: PDB, overnight; mode of three independent experiments
Method: The assay was carried out as per Alfred et al.. Candida albicans (FRR 5580) was grown in potato dextrose broth (PDB; Difco-BD, Bergen County, NJ, USA) overnight at 30 °C with shaking (200 rpm) until exponential phase, then adjusted to 0.5 McFarland turbidity standard (approximately 1 × 10^6 cells/mL) and diluted 1:200 with PDB to 0.5 − 2 × 10^3 cells/mL. Peptides in 25 μL volumes were mixed with 75 μL of the yeast suspensions. The controls were included as above. The plates were incubated overnight and absorbance was recorded. All the tests were conducted in triplicate.

[1] = system: pBlueScript SK+ plasmid DNA; experiment: In vitro DNA-binding assay (gel retardation); settings: 100 ng pBlueScript SK+, peptide 8-500 µg/mL, 1 h room temperature, 1% agarose
Method: The ability of peptides to bind to purified DNA (indicative of in vivo DNA binding potential) was tested by the modified gel retardation assay developed by Alfred et al.. The DNA of pBlueScript SK+ (100 ng) was incubated with peptides (to final concentrations of 8, 16, 32, 64, 125, 250 or 500 µg/mL) in 15 µL volumes made with sterile MilliQ water, the held at room temperature for 1h. Loading dye was added to each sample and the samples electrophoresed on 1% agarose gels. The gels were then immersed in ethidium bromide ([…]) then visualized and imaged

[2] = system: porcine trypsin and proteinase K; experiment: Proteases stability assay; assay type: in vitro ADME, porcine; Tritirachium album; settings: 1000 µg peptide with 50 µg protease (20:1 w/w), porcine trypsin or proteinase K, PBS pH 7.4, 37 °C, 3 h; read-out activity of supernatant on E. coli and S. aureus; triplicate
Method: The effect of two well-studied proteases, porcine trypsin and proteinase K from Tritirachium album, on the activity of peptides was investigated as per Carmona et al.. Briefly, 1000 µg of a peptide was incubated with 50 µg of a protease (20:1 w/w) at 37 °C for 3 h in phosphate buffered saline PBS (pH 7.4). The enzyme activity was then terminated by heating (70 °C, 5 min) and the samples centrifuged at 12,000× g. The activity of the supernatant on E. coli and S. aureus was tested as above, in triplicate.

S. aureus ATCC25923 = assay type: cell-based, Staphylococcus aureus; settings: MHB; for MIC S. aureus, No NaCl: 0 mM NaCl; for MIC S. aureus, No NaCl / MIC S. aureus, With 50mM NaCl / MIC S. aureus, With 100mM NaCl / MIC S. aureus, With 150mM NaCl: triplicate, mode; for MIC S. aureus ATCC25923: 37 °C overnight, A595, mode of three independent experiments
Method: as §2

| Molecule | IC50 NIH-3T3 (NIH-3T3 cells) [µg/mL] | Cytotoxicity to NIH-3T3 mouse fibroblasts (in words) (NIH-3T3 cells) | IC50 HeLa (HeLa cells) [µg/mL] | Salt Tolerance (E. coli and S. aureus) | MIC E. coli, No NaCl (E. coli ATCC25922) [µg/mL] | MIC E. coli, With 50mM NaCl (E. coli ATCC25922) [µg/mL] | MIC E. coli, With 100mM NaCl (E. coli ATCC25922) [µg/mL] | MIC E. coli, With 150mM NaCl (E. coli ATCC25922) [µg/mL] | MIC P. aeruginosa ATCC9027 (P. aeruginosa ATCC9027) [µg/mL] | MIC C. albicans FRR 5580 (C. albicans FRR 5580) [µg/mL] | Binding to DNA in vitro (concentration inhibiting plasmid migration) [1] [µg/mL] | Protease Stability [2] | MIC S. aureus, No NaCl (S. aureus ATCC25923) [µg/mL] | MIC S. aureus, With 50mM NaCl (S. aureus ATCC25923) [µg/mL] | MIC S. aureus, With 100mM NaCl (S. aureus ATCC25923) [µg/mL] | MIC S. aureus, With 150mM NaCl (S. aureus ATCC25923) [µg/mL] | MIC E. coli ATCC25922 (E. coli ATCC25922) [µg/mL] | Binding to DNA in vitro (concentration inhibiting plasmid migration) ([1]; listed as cyclized PuroA) [µg/mL] | MIC S. aureus ATCC25923 (S. aureus ATCC25923) [µg/mL] |
| --- | --- | --- | --- | --- | --- | --- | --- | --- | --- | --- | --- | --- | --- | --- | --- | --- | --- | --- | --- |
| RRRRWRWWRWWRR-NH2 [Peptide R8] | >250 | no cytotoxicity | 250 | Up to 150 mM | 64 | 64 | 64 | 64 | 64 | 250 | ≥ 64 | Unstable | 64 | 64 | 64 | 64 |  |  |  |
| CC(C)[C@@H]1NC(=O)[C@@H]2CCCN2C(=O)[C@H](Cc2ccccc2)NC(=O)CNC(=O)[C@H](CCCCN)NC(=O)[C@H](Cc2c[nH]c3ccccc23)NC(=O)[C@H](Cc2c[nH]c3ccccc23)NC(=O)[C@H](CCCCN)NC(=O)[C@H](Cc2c[nH]c3ccccc23)NC(=O)[C@H](Cc2c[nH]c3ccccc23)NC(=O)[C@H](CCCNC(=N)N)NC(=O)[C@H](Cc2c[nH]c3ccccc23)NC(=O)[C@H]([C@@H](C)O)NC1=O [Cyclic PuroA] | >250 | no cytotoxicity | >250 | Intolerant | 250 (≈ 135 µM) | > 250 | > 250 | > 250 | >250 | >250 | ≥ 64 | Unstable | 125 (≈ 67.7 µM) | 250 (≈ 135 µM) | 250 (≈ 135 µM) | > 250 | 250 (≈ 135 µM) | 64 | 125 (≈ 67.7 µM) |
| CC(C)[C@H](NC(=O)[C@@H]1CCCN1C(=O)[C@@H](N)Cc1ccccc1)C(=O)N[C@H](C(=O)N[C@@H](Cc1c[nH]c2ccccc12)C(=O)N[C@@H](CCCNC(=N)N)C(=O)N[C@@H](Cc1c[nH]c2ccccc12)C(=O)N[C@@H](Cc1c[nH]c2ccccc12)C(=O)N[C@@H](CCCCN)C(=O)N[C@@H](Cc1c[nH]c2ccccc12)C(=O)N[C@@H](Cc1c[nH]c2ccccc12)C(=O)N[C@@H](CCCCN)C(=O)NCC(=O)O)[C@@H](C)O [PuroA-OH] | >250 | no cytotoxicity | >250 | Intolerant | 32 (≈ 17.2 µM) | 64 (≈ 34.3 µM) | > 250 | > 250 | 125 (≈ 67.1 µM) | 250 (≈ 134 µM) |  | Unstable | 64 (≈ 34.3 µM) | 125 (≈ 67.1 µM) | > 250 | > 250 | 32 (≈ 17.2 µM) |  | 64 (≈ 34.3 µM) |
| WRWWKWWK-NH2 [Peptide W8] | >250 | no cytotoxicity | 250 | Up to 150 mM | 4 | 4 | 4 | 4 | 32 | 64 | ≥ 16 | Unstable | 8 | 8 | 8 | 8 | 4 |  | 8 |
| RWWKWW-NH2 [Peptide R6] | 250 |  | >250 | Intolerant | 32 | 64 | 250 | > 250 | 32 | 64 |  | Unstable | 16 | 32 | 250 | > 250 | 32 |  | 16 |
| WRWWKWW-NH2 [dW7, diastereomeric counterpart of W7] | >250 |  | 125 | Up to 150 mM | 8 | 8 | 8 | 8 | 16 | 64 | ≥ 32 |  | 8 | 8 | 8 | 8 | 8 |  | 8 |
